# Laboratory results reported in patent US20250263436A1, “BROAD-SPECTRUM ANTIVIRAL DRUG FOR ENTEROVIRUS, AND APPLICATION” (WUHAN INSTITUTE OF VIROLOGY, CHINESE ACADEMY OF SCIENCES, priority 2020, published 2025).
# Where “and” joins values, the source holds several entries; their conditions need not be identical. Equal entries are not always repeated.
# How the values were obtained:
# [1] = tested on: EV71; assay: Inhibition of EV71 in Vero cells (viral RNA, qRT-PCR); format: cell-based, enterovirus 71 (EV71); details: for Percentage of viral RNA in Vero cells (%): EV71, 24 h after infection
# Procedure: (1) Different cells were plated in a 24-well plate.
# (2) When the cells grew to a confluence of 70%-80%, the DMEM medium containing 10% serum was replaced with a DMEM medium containing 2% serum (the DMEM medium containing 2% serum was added in each well at an amount of 0.5 mL), and 5 μL of EV71 virus of 1×10^6 PFU/mL was added to each well.
# (3) After 1 h, different polypeptides (RQ or control TAT) with final concentrations of 0.3125 μM, 0.625 μM, 1.25 μM, 2.5 μM, and 5 μM were added respectively. The group without polypeptide added was used as a control.
# (4) The samples were collected 24 h after the infection of EV71 virus, and RNA was extracted with the total RNA extraction kit.
# (5) The supernatant was discarded, then 350 μL of TRK lysate was added to each well, and the plate was put on a shaker for 5 min.
# (6) 350 μL of 70% ethanol (DEPC) was added to each well, and then the plate was put on a shaker for 5 min.
# (7) The solution in each well was transferred to a RNA extraction column for 1 min of centrifugation at 12000 g.
# (8) The solution obtained in the recovery tube was reloaded on the column again for 1 min of centrifugation at 12000 g.
# (9) RNA washing buffer 1 was added in the column for 30 s of centrifugation at 12000 g.
# (10) RNA washing buffer 2 was added in the column for 1 min of centrifugation at 12000 g.
# (11) Step (10) was repeated.
# (12) The column alone was centrifuged at 12000 g for 2 min to completely remove the residual RNA washing buffer.
# (13) 50 μL of DEPC water was added to the column for 2 min of centrifugation at 12000 g.
# (14) 2 μL of RNA sample was subjected to a fluorescence quantitative experiment using the one step qRT-PCR kit.
# (1) Vero E6 cells were plated in a 24-well plate.
# (3) After 1 h, different polypeptides (LQ or SQ) with final concentrations of 0.3125 μM, 0.625 μM, 1.25 μM, 2.5 μM, and 5 μM were added respectively. The group without polypeptide added was used as a control.
# [2] = biological target: T1, EV71 2C protein (Human enterovirus 71, UniProt Q66478); assay: Inhibition of helicase activity of EV71 2C protein in vitro (dsRNA unwinding); format: biochemical; details: MBP-EV71 2C; dsRNA substrate; 37° C. 50 min
# T1 construct: In vitro expression and purification of EV71 2C protein; made in house; host or cells: Sf9 (Spodoptera frugiperda) cells infected with recombinant baculovirus
# T1 sequence (Q66478 1112-1440 limits assumed): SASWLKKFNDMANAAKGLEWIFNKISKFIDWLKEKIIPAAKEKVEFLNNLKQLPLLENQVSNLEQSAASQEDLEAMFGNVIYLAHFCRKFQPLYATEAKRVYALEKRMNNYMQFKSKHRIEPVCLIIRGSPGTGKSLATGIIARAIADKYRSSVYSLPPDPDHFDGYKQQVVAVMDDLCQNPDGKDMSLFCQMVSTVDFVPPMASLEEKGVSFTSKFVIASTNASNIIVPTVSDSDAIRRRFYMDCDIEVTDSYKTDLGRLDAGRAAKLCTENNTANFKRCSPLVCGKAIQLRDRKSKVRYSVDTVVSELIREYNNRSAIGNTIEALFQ
# Procedure: (1) A strand labeled with HEX at a concentration of 0.2 pmol/μL was added with a complementary strand RNA at the same concentration to prepare a HEX-labeled double-stranded dsRNA substrate by annealing.
# (2) Annealing process: the reaction system was kept at 75° C. for 3 min, cooled to 25° C. at a rate of 1° C. per minute, and then kept at 25° C. for 2 min.
# (3) The target protein and the double-stranded substrate were prepared according to the standard unwinding experiment reaction system. 5 μg of polypeptide RQ and control TAT were added respectively, and single and double strands controls were set. The single strand sample was boiled at 75° C. for 3 min and then placed on ice for 2 min.
# (4) The prepared system was mixed well and then placed at 37° C. for 50 min of reaction.
# (5) A mixture obtained after the reaction was subjected to electrophoresis.
# (6) Finally, Typhoon 9500 was used for direct scan to obtain a HEX signal.
# During electrophoresis, the single strand ran faster than the double strand. Therefore, if the MBP-2C protein had helicase activity, it can unwind the double-stranded dsRNA substrate to release a single-stranded RNA, and then the lane would show two bands, upper and lower. The single-stranded RNA (lane 2) prepared by boiling at 75° C. was used as a positive control. The reaction without protein added (lane 1) was used as a negative control.
# [3] = tested on: EV71; assay: Inhibitory activity on EV71 in RD cells by CCK8 method; format: cell-based, enterovirus 71 (EV71); details: for Inhibition rate on EV71 virus (%): RD cells, 0.1 MOI, 24 h, CCK8
# Procedure: (1) RD cells were plated in a 96-well plate at 100 μL per well.
# (2) When the cells grew to a confluence of 70%-80%, the DMEM medium containing 10% serum was replaced with a DMEM medium containing 2% serum.
# (§1) (3) The polypeptide drug was gradiently diluted with the DMEM containing 2% FBS into concentrations of 0.15625 μM, 0.3125 μM, 0.625 μM, 1.25 μM, 2.5 μM, and 5 μM, and then added to a new 96-well plate at 100 μL per well, with 3 replicate wells for each concentration.
# (4) The diluted virus was added to the above wells at 100 μL per well. The wells with no drug and no virus added and the wells with no drug but virus added were set as controls respectively, with a final concentration of virus of 0.1 MOI.
# (4) The mixture was transferred into the 96-well plate plated with cells for another 24 h of culture, and the inhibitory activity of the polypeptide on the virus was determined by a CCK8 kit.
# (5) The inhibition rates of different concentrations of the polypeptides on virus infection were calculated according to a calculation formula of: inhibition rate of polypeptide=(well with drug-well with virus)×100%/(well with no drug-well with virus).
# as §1, with “concentration. (4) The diluted virus was added to the above wells at 100 μL per well. The wells with no drug and no virus added and the wells with no drug but virus added were set as controls respectively, with a final concentration of virus of 0.1 MOI.” for “concentration.”
smiles,measurement,setting,value
"N=C(N)NCCC[C@H](NC(=O)[C@H](CCCNC(=N)N)NC(=O)[C@H](CCCNC(=N)N)NC(=O)[C@H](CCC(N)=O)NC(=O)[C@H](CCCNC(=N)N)NC(=O)[C@H](CCCNC(=N)N)NC(=O)[C@H](CCCCN)NC(=O)[C@H](CCCCN)NC(=O)[C@H](CCCNC(=N)N)NC(=O)CNC(=O)[C@@H](N)Cc1ccc(O)cc1)C(=O)O [TAT, YGRKKRRQRRR]",Percentage of viral RNA in Vero cells (%),[1]; polypeptide 0.3125 μM,115.6133% and 93.75% and 91.92%
same,Percentage of viral RNA in Vero cells (%),[1]; polypeptide 0.625 μM,121.4818% and 94.87% and 149.0928%
same,Percentage of viral RNA in Vero cells (%),[1]; polypeptide 1.25 μM,111.6527% and 97.24% and 100.8214%
same,Percentage of viral RNA in Vero cells (%),[1]; polypeptide 2.5 μM,125.8799% and 103.6078% and 137.9907%
same,Percentage of viral RNA in Vero cells (%),[1]; polypeptide 5 μM,136.8661% and 104.0616% and 88.68%
same,anti-EV71 effect,[1]; Vero cells,no anti-EV71 effect
same,helicase activity of EV71 2C,[2],did not affect the helicase activity of 2C
same,antiviral activity,"[3]; EV71 in RD cells, CCK8 method",no antiviral activity
same,Inhibition rate on EV71 virus (%),[3]; polypeptide 0.15625 μM,1.38% and 5.231% and 2.294%
same,Inhibition rate on EV71 virus (%),[3]; polypeptide 0.3125 μM,2.463% and 5.242% and 6.282%
same,Inhibition rate on EV71 virus (%),[3]; polypeptide 0.625 μM,8.374% and 2.34% and 7.234%
same,Inhibition rate on EV71 virus (%),[3]; polypeptide 1.25 μM,8.365% and 3.237% and 6.203%
same,Inhibition rate on EV71 virus (%),[3]; polypeptide 2.5 μM,7.373% and 4.241% and 8.213%
